Legend:
TFEB = TFEB nuclear translocation time course in transfected N2A cells; assay type: cell-based, mouse; settings: for TFEB nuclear translocation: N2A cells; for TFEB nuclear translocation (i.e., activation): overall statement, GFP-TFEB transfected N2A cells, acute treatment
Method: FIG. 15(A-B). Treatment with LM11A-31 stimulates TFEB nuclear translocation as monitored via time course study. For (A), wild type neuro 2A […] neuroblastoma (N2A) cells were plated and transfected with a pEGFP-N1-TFEB plasmid for a 24-hour incubation. Cells were dyed and imaged on the CellInsight™ CX7 High-Content Screening Platform (CX7) then treated with media containing vehicle or LM11A-31 (100 nM, 1 μM). Cells were imaged every 30 minutes for three hours on the CX7 with incubation between imaging sessions, and results were quantified. The statistics were analyzed using Graphpad Prism™. One-way ANOVA. Mean S.E.M. Dunnett's multiple comparisons test compared to the vehicle treated group. *p<0.05, **p<0.01, ***p<0.001, ****p<0.0001. Quantification of TFEB nuclear translocation after treatment with vehicle or LM11A-31 (100 nM, 1 μM). […] (B) Since LM11A-31 increases the expression of lysosomal genes including the PPT1 and TPP1, and Cathepsin D enzymes, we asked whether LM11A-31 increases the overall activity levels of these enzymes in cellulo. Wild type (WT) and mutant cells were treated with vehicle or LM11A-31 (100 nM). Cells were plated on day 0 and dosed with drug-containing media on DIV3 and DIV5. Cells were lysed, and protein quantification and enzyme activity assay were performed on DIV7. Data was analyzed with GraphPad Prism™. Two-way ANOVA. Mean S.E.M. Tukey's multiple comparisons test. *p<0.05, **p<0.01, ***p<0.001. ****p<0.0001.
Treatment with AF38469 stimulates TFEB nuclear translocation as monitored via time course study. For (A) and (B), wild type neuro 2A […] neuroblastoma (N2A) cells were plated and transfected with a pEGFP-N1-TFEB plasmid for a 24-hour incubation. Cells were treated with vehicle or AF38469 (40 nM, 400 nM) for three hours then immunocytochemistry was performed with anti-GFP (Abcam, ab13970) and 4′, -diamidino-2-phenylindole-dihydrochloride (DAPI). Cells were imaged on the Nikon AIR confocal microscope. For (C), wild type N2A cells were plated and transfected with a pEGFP-N1-TFEB plasmid for a 24-hour incubation. Cells were dyed and imaged on the CellInsight™ CX7 High-Content Screening Platform (CX7) then treated with media containing vehicle or AF38469 (40 nM, 400 nM). Cells were imaged every 30 minutes for three hours on the CX7 with incubation between imaging sessions, and results were quantified. The statistics were analyzed using Graphpad Prism™. One-way ANOVA. Mean±S.E.M. Dunnett's multiple comparisons test compared to the vehicle treated group. *p<0.05,**p<0.01, ***p<0.001, ****p<0.0001. […] TFEB is a transcription factor that stimulates transcription of genes that are necessary for lysosomal biogenesis and function. Thus, increased TFEB nuclear translocation is expected to stimulate lysosomal biogenesis and function.

Cln3^Δex7/8 mice = assay: SubC burden (immunohistochemistry) in brain of Cln3^Δex7/8 mice; assay type: in vivo, mouse

Molecule | TFEB nuclear translocation (TFEB; 40 nM and 400 nM, 180 minutes of incubation, vs vehicle) | TFEB nuclear translocation (TFEB; 40 nM, 90 minutes of incubation, vs vehicle) | TFEB nuclear translocation (i.e., activation) (TFEB) | SubC accumulation (Cln3^Δex7/8 mice; overall statement, short term treatment, Cln3^Δex7/8) | TFEB nuclear translocation (TFEB; 100 nM and 1 μM, 180 minutes of incubation) | TFEB nuclear translocation (TFEB; 100 nM, 90 minutes of incubation) | SubC burden (Cln3^Δex7/8 mice; semaglutide 2.571 μg/mouse s.c., CA3 of the hippocampus) | SubC burden (Cln3^Δex7/8 mice; semaglutide 2.571 μg/mouse s.c., VPM/VPL of the thalamus) | accumulation of mitochondrial ATP synthase subunit C (SubC) (Cln3^Δex7/8 mice; semaglutide 2.571 μg/mouse, 25.71 μg/mouse s.c., S1BF of the somatosensory cortex) | SubC burden (Cln3^Δex7/8 mice; semaglutide 25.71 μg/mouse s.c., CA3 of the hippocampus) | SubC burden (Cln3^Δex7/8 mice; semaglutide 25.71 μg/mouse s.c., VPM/VPL of the thalamus)
Cc1cccc(NC(=O)c2ccc(C(F)(F)F)cc2C(=O)O)n1 [AF38469, 2-((6-methylpyridin-2-yl)carbamoyl)-5-(trifluoromethyl)benzoic acid] | significant increase | significant increase | stimulated | reduces |  |  |  |  |  |  | 
CC[C@H](C)[C@H](N)C(=O)NCCN1CCOCC1 [LM11A-31, N-[2-(morpholin-4-yl)ethyl]-L-isoleucinamide] |  |  | stimulated |  | increasing trend continued | significant increase |  |  |  |  | 
semaglutide |  |  |  |  |  |  | had no significant effect | had no significant effect | had no significant effect | significantly reduced | significantly elevated

Reference: US20240197700A1, “Methods and Compositions for Treating Lysosomal Storage Disorders” (Sanford Health, priority 2021, published 2024)
